Measured values: PubChem BioAssay (NCI)
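How tested: cells in 96-well plates exposed to compound for 48 hours at five concentrations. GI50 marks 50% less growth. TGI is the concentration that stops growth completely.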

What was measured:
Assay in all cases: NCI tumour cell line growth inhibition, 48 h
DMS 273 small cell lung = test system: DMS 273 small cell lung
RXF-631 renal = test system: RXF-631 renal
KM20L2 colon = test system: KM20L2 colon
HOP-18 NSCLC = test system: HOP-18 NSCLC
DLD-1 colon = test system: DLD-1 colon
DMS 114 small cell lung = test system: DMS 114 small cell lung
M19-MEL melanoma = test system: M19-MEL melanoma
XF 498 CNS = test system: XF 498 CNS
MDA-N = test system: MDA-N

Row | SMILES | TGI (DMS 273 small cell lung) | TGI (RXF-631 renal) | TGI (KM20L2 colon) | TGI (HOP-18 NSCLC) | TGI (DLD-1 colon) | TGI (DMS 114 small cell lung) | TGI (M19-MEL melanoma) | TGI (XF 498 CNS) | TGI (MDA-N) | GI50 (MDA-N)
1 | S=C1SCC2CCCN12 (centres undefined) | > 100 µM | > 100 µM | > 100 µM | > 100 µM | > 100 µM | > 100 µM | > 100 µM | – | – | –
2 | CC(=O)/C=C1\CC(=O)N(C)c2ccccc2N1 | > 100 µM | – | – | – | 22.9 µM | 64.3 µM | > 100 µM | > 100 µM | – | –
3 | O=C(O)c1cccc([As]=[As]c2cccc(C(=O)O)c2)c1 (centres undefined) | – | – | – | – | – | – | – | – | > 100 µM | –
4 | O=C1NC(c2ccccc2)(c2ccccc2)C(=O)N1CCCCCCN1C(=O)NC(c2ccccc2)(c2ccccc2)C1=O | > 100 µM | – | > 100 µM | > 100 µM | > 100 µM | > 100 µM | > 100 µM | 30.9 µM | – | –
5 | COC1CCCc2c(OC(C)=O)ccc(OC(C)=O)c21 (centres undefined) | – | – | > 100 µM | – | – | > 100 µM | – | – | – | –
6 | COc1ccccc1/C=C1\C(=O)N(C(=O)Cc2ccccc2)N=C1C | > 100 µM | – | – | > 100 µM | > 100 µM | > 100 µM | > 100 µM | > 100 µM | – | –
7 | CCOC(=O)c1ccc(N=Cc2ccc(N(CCC#N)S(=O)(=O)c3ccccc3)cc2C)cc1 | > 100 µM | > 100 µM | > 100 µM | – | > 100 µM | > 100 µM | > 100 µM | > 100 µM | – | –
8 | COc1ccc2nc3cc(Cl)ccc3c(Sc3ccc(N)cc3)c2c1 | 23.5 µM | 34.4 µM | 17.9 µM | 25.3 µM | 19.8 µM | 19 µM | 20.2 µM | 27.5 µM | – | –
9 | O=C(n1c2ccccc2c2n[nH]c(=S)nc21)C(F)(F)F | > 100 µM | – | – | – | > 100 µM | > 100 µM | > 100 µM | > 100 µM | – | –
10 | CCCCC[C@@H]1CCCC2NC(CCCCCO[Si](c3ccccc3)(c3ccccc3)C(C)(C)C)CCC21 (some centres undefined) | 32.4 µM | 27.7 µM | 23.8 µM | – | 28.1 µM | 28.1 µM | 31.8 µM | – | – | –
11 | O=C1c2ccccc2C(=O)N1c1ccc(Cc2ccc(N3C(=O)c4ccccc4C3=O)cc2)cc1 | – | – | – | – | – | – | – | – | > 100 µM | –
12 | O=C(O)/C=C/c1c2ccc(=O)c(O)c-2oc2c(O)c(O)ccc12 | – | – | – | – | – | – | – | – | 34.5 µM | –
13 | Cn1c(=O)nc2n(-c3ccc(Br)cc3)c3ccccc3nc-2c1=O | 14 µM | 29.8 µM | 8.74 µM | 18.8 µM | 36.3 µM | 4.39 µM | 2.93 µM | 25 µM | – | –
14 | CC(C)(C)c1cc(C2c3cc4c(cc3OC(O)(CO)C2C(=O)O)OCO4)cc(C(C)(C)C)c1O (centres undefined) (tested in a mixture with another compound) | 41 µM | 43.3 µM | 33.4 µM | 20.3 µM | 33.2 µM | 23.8 µM | 28.6 µM | – | – | –
15 | N#CN1CC[C@@H]2CC3(CCC2C1)OCCO3 (some centres undefined) | > 100 µM | > 100 µM | > 100 µM | > 100 µM | > 100 µM | > 100 µM | > 100 µM | > 100 µM | – | –
16 | COC(=O)NC1(NC(=O)OC)NC(=O)c2ccccc2N1 | – | – | – | – | – | – | – | – | > 100 µM | –
17 | O=C(c1ccc(Cl)cc1Cl)N1CCN(C(=O)c2ccc(Cl)cc2Cl)C1=S | – | – | – | – | – | – | – | – | 43.8 µM | 20 µM
18 | Nc1n[n+]([O-])c2ccc(Cl)cc2[n+]1[O-] | – | – | – | – | – | – | – | – | 73.5 µM | –
19 | O=C(c1ccccc1)c1nc2c(Cl)ccc(Cl)c2cc1C(Br)Br | 3.14 µM | 3.86 µM | 2.51 µM | 3.17 µM | 2.24 µM | 6.19 µM | 6.26 µM | 2.29 µM | – | –
20 | NCC(=O)Nc1ccc(Cl)cc1C(=O)c1ccc[nH]1 | – | – | – | – | – | – | – | – | > 100 µM | –
21 | CC(C)(C)C1=CC(=N/N=c2\scc(-c3ccccc3)n2Cc2ccccc2)C=C(C(C)(C)C)C1=O | > 100 µM | – | > 100 µM | – | – | > 100 µM | > 100 µM | > 100 µM | – | –
22 | N[C@H]1CCC[C@@H](O)C1O (some centres undefined) | – | – | – | – | – | – | – | – | > 100 µM | –
23 | O=C(NCCCN1CCN(CCCNC(=O)c2cccc3ccccc23)CC1)c1cccc2ccccc12 | – | > 100 µM | 73.5 µM | > 100 µM | – | > 100 µM | > 100 µM | 93.9 µM | – | –
24 | COc1ccc([N+](=O)[O-])c2c(NCCCN(C)C)c(C)c(C)nc12 | – | – | – | – | – | – | – | – | > 100 µM | –
25 | O=C(Nc1cc(Cl)c(I)c(Cl)c1)C(F)(F)F | – | – | – | – | – | – | – | – | > 100 µM | –
26 | O=c1[nH]c2nc3ccccc3c(=O)n2nc1Cc1ccccc1 | > 100 µM | – | > 100 µM | – | > 100 µM | > 100 µM | – | – | – | –
27 | COc1ccc2[nH]c3c(C)c4c(c(C)c3c2c1)CN(C)C=C4 | 10.3 µM | – | 21.1 µM | 47.7 µM | 32.2 µM | 3.05 µM | 5.53 µM | 5.78 µM | 34.6 µM | –
28 | C=C1C(=O)OC2CC1C(OC(=O)/C=C/c1ccccc1)C/C(C)=C/CC/C(C)=C/CCC2(C)O (centres undefined) | – | – | – | – | – | – | – | – | 2.67 µM | –
